The conditions of series [1]: 101.33 kPa, Crystal, radial heat flow.
Series [2] can be described thus: xn = mol fraction of the nth substance listed. The note with it: 101 kPa, radial heat flow.

The structures appear in SMILES notation. Numbers after ± are expanded uncertainties.

The source of these data is the NIST ThermoML archive (doi:10.1016/j.fluid.2010.02.029).

With `[Bi]` [bismuth], the thermal conductivity in series [1] (382.65 K) is given as 8.35 ± 1.2 W/m/K; in series [1] (418.7 K) it was 8.12 ± 1.1 W/m/K.
Turning to `[Cd]` [cadmium] + [Bi], the thermal conductivity in series [2] (418.7 K, Crystal, x2 = 0.5504) was found to be 12.46 ± 1.7 W/m/K; in series [2] (418.7 K, Liquid, x2 = 0.5504), 10.06 ± 1.4 W/m/K.
Regarding `[In]` [indium] + [Bi], the thermal conductivity in series [2] (382.65 K, Crystal, x2 = 0.527) is 13.25 ± 1.9 W/m/K; in series [2] (382.65 K, Liquid, x2 = 0.527) it was 10.6 ± 1.5 W/m/K.
